According to patent US7842324B2 (Senomyx, Inc., priority 2005, dated 2010):

Test system: tasters
Test: Reduced sugar soda syrup (strawberry soda) sensory evaluation
Format: in vivo, human
Conditions: scale 1 to 10
Method: 1000.00 g of the ⅔ sugared syrup comprising compound 23 was formulated in the following manner. Compound 23 was diluted with maltodextrin (1:100) to make a sweetener concentrate composition for addition to the soda syrup formulation. An alternative method is to make a solution of amide compound in propylene glycol that can be added directly into the liquid soda syrup formulation. A 100 g batch of dry sweetener concentrate composition was produced by weighing 1.000 g of the enhancer and 99.0000 g of 10 D.E. maltodextrin. 50 g of the maltodextrin was placed on the bottom of a clean and dried mortar and the 1.0000 g of amide compound was added and slowly mixed into the maltodextrin. In a planetary mixer with a wire whip attachment (KITCHEN AIDE™ Mixer), the rest of the maltodextrin was added to the mixing bowl, and the contents of the mortar was placed into the mixer and the mixer was turned on to a slow speed (setting 3). A rubber spatula was used to remove the contents of the mortar and the contents were allowed to mix for an additional 10 minutes. A rubber spatula was used to scrap the walls and bottom of the bowl. The mixture was blended on low for another 15 minutes. The […] sweetener concentrate composition was stored in an air tight amber glass container. […]

CC(C)CNC(=O)C(C)(C)c1ccc(-c2cncc(C#N)c2)cc1 [Compound 23, 2-(4-(5-cyanopyridin-3-yl)phenyl)-N-isobutyl-2-methylpropanamide]
Average Sweet Intensity Score (⅔ sugared with HFCS strawberry soda + 1.0 ppm): 6.429 | Average Sweet Intensity Score (⅔ sugared with HFCS strawberry soda + 1.3 ppm): 7.214
